Where two headings read alike, the source gives them in different places. Values belong to the compound of their own block, whether it stands above or below them.
Experiments:
[1] = target: T1, L-selectin (Homo sapiens, UniProt P14151); details: literature comparison values; read-out: IC50, L-selectin binding; cited from earlier work
T1 construct: purchased R&D Systems, Minneapolis, USA
From the text: However, the densely sulfated dendritic polyglycerol of similar molecular weight is able to bind in the ...

[2] = target: T1, L-selectin; test: competitive SPR L-selectin binding (inhibition) assay; details: competitive SPR (BIAcore X); L-selectin/Fc chimera on protein A-coated 15 nm gold nanoparticles preincubated with analyte; chip with immobilized sulfated tyrosine/sialyl-Lewis X ligand; HEPES 0.020 M pH 7.4, 0.150 M NaCl, 0.001 M CaCl2; sigmoidal fit
Protocol: The L-selectin binding behavior of the sulfated supramolecular polymer resulting from II was assessed using a competitive surface plasmon resonance (SPR) binding assay, whereby neutral supramolecular polymers of I were used as control experiment. L-Selectin-coated gold nanoparticles were incubated with analyte solutions of different concentrations and subsequently probed on an SPR-chip modified with immobilized sulfated tyrosine and sialyl-Lewis^X as model ligands. The resulting signal is referenced to a control experiment lacking the preincubation of L-selectin particles. Figure 3 summarizes the resulting dose–response curves.
Figure 3 Concentration-dependent relative L-selectin binding of the supramolecular polymers I and II in HEPES buffer (0.020 M, pH 7.4, with 0.150 M NaCl and 0.001 M CaCl2) measured by SPR. L-Selectin-coated nanoparticles were preincubated with solutions of the supramolecular polymers. […]
(Quantifoil R1/4) at room temperature. […]
autoloader protocol. The micrographs were recorded under low -dose conditions with a primary
magnification of 28000x and an acceleration voltage of 200 kV. The images were recorded by […]
Minneapolis, USA), and the binding signal to the artificial ligand was recorded. […]
taken, which yielded the respective dose–response curves. The IC50 values were determined […]

[3] = TEM of negatively stained solutions (self-assembly morphology); assay type: physicochemical; details: TEM (25 µM, TRIS 20 mM pH 7.4, 100 mM NaCl) and cryo-TEM (50 µM, PBS (-/-) pH 7.4, 100 mM NaCl)
Protocol: The application of transmission electron microscopy (TEM) gave further insight into the morphology of the assemblies induced by the secondary structure formation (Figure 1). All samples for convential TEM imaging were prepared by placing 5 μL of the aqueous solution on a sample grid for 1 min, followed by the removal of the excess liquid using a filter paper and subsequent negative staining using a 2% uranyl acetate solution. By analyzing a 25 μM aqueous solution of I, long rigid anisotopic rod-like structures with lengths of 200–400 nm could be visualized (Figure 1B and 1C), in agreement with our previously reported findings. […] The copresence of shorter, more flexible structures could be seen as well. […] Since the morphology of the aqueous supramolecular polymers observed in dry TEM can be influenced by the sample preparation, cryo-TEM experiments were furthermore performed in order to visualize the assemblies in a native state (Figure 1D and Figure S1 in Supporting Information File 1). The presence of straight nanorods of over 200 nm in length with a high degree of lateral order could be observed, thus corroborating the interpretations from dry TEM experiments.
In order to compare the morphology of the self-assembled sulfated compound II with the TEG-decorated compound I, TEM and cryo-TEM experiments were performed (Figure 2B and 2C). […]

[4] = CD spectroscopy, ionic strength-dependent titration of self-assembly; assay type: physicochemical; details: 25 µM solution in 20 mM TRIS, pH 7.4; CD band around 218 nm
From the text: The self-assembly behavior of the peptide-based materials can be readily investigated using CD spectroscopy. The supramolecular polymerization strongly relies on the formation of secondary structure elements, leading to ordered domains that lead to characteristic CD band spectra. By probing aqueous solutions of I at different concentrations in H2O, a strongly negative CD band at around λ ≈ 220 nm became apparent (Figure 1A). In the past we have assigned this characteristic CD band to a β-sheet-dominated short-range ordering of oligopeptide monomers, which is stable over a wide concentration range [30, 39–40].
Attaching functional groups to the dendritic peptide amphiphiles – and thus the supramolecular polymers – by exchanging one of the shielding dendritic tetra(ethylene glycol) dendrons is important with regard to potential applications. However, depending on the nature of the functional groups, the influence on the self-assembly behavior may not be neglected. In the present work, the installation of a sulfated oligoglycerol dendron introduces eight anionic charges to the periphery of the peptide amphiphile II that possibly counteracts the β-sheet-driven self-assembly due to electrostatic repulsion. CD spectroscopic experiments based on 25 µM or 50 µM solutions of II in 20 mM TRIS as well as PBS buffer support this notion (Figure 2A and Figure S2 in Supporting Information File 1). […]

T1 sequence (P14151 with tags, fused parts or gaps limits assumed, species assumed): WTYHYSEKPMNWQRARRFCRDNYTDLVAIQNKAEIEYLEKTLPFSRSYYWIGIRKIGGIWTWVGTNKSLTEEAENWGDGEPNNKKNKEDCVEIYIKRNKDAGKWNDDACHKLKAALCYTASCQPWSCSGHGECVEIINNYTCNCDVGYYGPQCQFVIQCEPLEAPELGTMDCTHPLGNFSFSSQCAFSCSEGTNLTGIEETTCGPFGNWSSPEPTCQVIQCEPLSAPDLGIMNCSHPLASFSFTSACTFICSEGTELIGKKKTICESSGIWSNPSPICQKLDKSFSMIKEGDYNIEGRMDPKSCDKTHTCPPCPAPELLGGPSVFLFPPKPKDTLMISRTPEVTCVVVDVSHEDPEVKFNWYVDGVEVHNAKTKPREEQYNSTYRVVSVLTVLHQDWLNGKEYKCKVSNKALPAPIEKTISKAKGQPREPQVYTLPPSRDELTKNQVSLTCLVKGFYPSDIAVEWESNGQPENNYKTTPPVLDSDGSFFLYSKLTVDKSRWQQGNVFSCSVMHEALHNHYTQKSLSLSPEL

Compound: unfractionated heparin
IC50 [1]: 12 µM

IC50 [2]: 5 µM
Compound: COCCOCCOCCOCCOCC(COCCOCCOCCOCCOC)(COCCOCCOCCOCCOC)NC(=O)CCCCCNC(=O)[C@H](Cc1ccccc1)NC(=O)[C@H](Cc1ccccc1)NC(=O)[C@H](Cc1ccccc1)NC(=O)c1cc(C(=O)N[C@@H](Cc2ccccc2)C(=O)N[C@@H](Cc2ccccc2)C(=O)N[C@@H](Cc2ccccc2)C(=O)NCCCCCC(=O)NC(COCCOCCOCCOCCOC)(COCCOCCOCCOCCOC)COCCOCCOCCOCCOC)cc(C(=O)N[C@@H](Cc2ccccc2)C(=O)N[C@@H](Cc2ccccc2)C(=O)N[C@@H](Cc2ccccc2)C(=O)NCCCCCC(=O)NC(COCCOCCOCCOCCOC)(COCCOCCOCCOCCOC)COCCOCCOCCOCCOC)c1 [I]

Compound: COCCOCCOCCOCCOCC(COCCOCCOCCOCCOC)(COCCOCCOCCOCCOC)NC(=O)CCCCCNC(=O)[C@H](Cc1ccccc1)NC(=O)[C@H](Cc1ccccc1)NC(=O)[C@H](Cc1ccccc1)NC(=O)c1cc(C(=O)N[C@@H](Cc2ccccc2)C(=O)N[C@@H](Cc2ccccc2)C(=O)N[C@@H](Cc2ccccc2)C(=O)NCCCCCC(=O)NCCOCCNC(=O)Cn2cc(COC(COC(COC(COS(=O)(=O)O)COS(=O)(=O)O)COC(COS(=O)(=O)O)COS(=O)(=O)O)COC(COC(COS(=O)(=O)O)COS(=O)(=O)O)COC(COS(=O)(=O)O)COS(=O)(=O)O)nn2)cc(C(=O)N[C@@H](Cc2ccccc2)C(=O)N[C@@H](Cc2ccccc2)C(=O)N[C@@H](Cc2ccccc2)C(=O)NCCCCCC(=O)NC(COCCOCCOCCOCCOC)(COCCOCCOCCOCCOC)COCCOCCOCCOCCOC)c1 [II]
length of long rigid rods [3]: several hundred nanometers
added NaCl at which the characteristic β-sheet CD signature is restored [4]: > 100 mM

Source: publication PMC7814183, “Supramolecular polymerization of sulfated dendritic peptide amphiphiles into multivalent L-selectin binders” (Beilstein Journal of Organic Chemistry, 2021)
